Data as given in patent publication US5349127A, “Expression of herbicide metabolizing cytochromes P450” (priority 1992, dated 1994).

How the values were obtained:
[1] = test system: leaves of transformed tobacco; assay: Metabolism of 10015 to 10014 in excised tobacco leaves (Example 20); format: in vitro ADME, Nicotiana tabacum
Protocol: Plants were grown from tobacco seed produced by self-pollinated transformed plants in Metro-Mix® 350 under 16 hour light (light intensity of 400 μEinsteins per second per square meter at pot level, 22° C. and 80% relative humidity) followed by 8 hours of dark (18° C. and 70 to 80% relative humidity) and watered three times daily with half strength Hoagland's solution. The presence of the cytochrome P450 protein in individual plants was confirmed by Western blot analysis before testing for sulfonylurea metabolism.
During growth, the tobacco plants produced leaves attached to the main stalk, none of which were of the same age or size. Removal of leaves attached to the main stalk of each plant forced the growth of lateral shoots which in turn produced the many leaves of similar size and age needed for the experiments. The leaves were excised under water with a scalpel. These leaves were transferred to cups with the uptake solution (20 ppm sulfonylurea in 1 mM potassium phosphate buffer, pH 7.0) and allowed to take up the solution through the cut leaf base for 2 hours in the light (200 μEinsteins per second per sq. meter) at 22° C. and 86% relative humidity. At the end of the uptake period, sample leaves were either frozen in liquid nitrogen and stored at -20° C. (designated '0 hour post-uptake samples') or transferred to cups with phosphate buffer alone for an additional 5 hours of incubation in the light before freezing (designated 5 hour post-uptake samples'). In the 10001 experiments some leaves were incubated for 21 hours post-uptake under continuous light (200 μEinsteins per second per square meter, 22° C., and 63% relative humidity).
Individual leaves were extracted with 30 ml acetone/water (80%/20% by volume) for 1 minute in a Sorvall® Omni-Mixer. The brei was centrifuged to remove the tissue debris. Acetone in the supernatant was removed under a stream of nitrogen. The resulting aqueous extract was acidified to pH 2 to 3 with sulfuric acid and then extracted three times with methylene chloride. The combined methylene chloride extracts were reduced to dryness by rotary evaporation at 30° to 40° C. The dry residue was dissolved in acetone for transfer to a vial. Once transferred the acetone was removed by evaporation under a stream of nitrogen. Before HPLC analysis the dry sample was redissolved in 1.0 ml of acetonitrile/water (25%/75%). HPLC separations were carried out on a Zorbax® ODS column (4.6 mm×250 man) at 45° C. with a flow rate of 1.4 ml per minute. […] 10015 and its metabolites were detected at 254 nm while ^14 C-10001 and its metabolites were detected with a Radiomatic Flo-One® detector. A diode array detector was used in separate experiments to obtain the absorbance spectra of the 10015 metabolite and an 10014 standard in the HPLC analysis of several extracts (HPLC method is described in Romesser et al., Biochem. Biophys. Res. Comm., 140:650-659 (1986)). Comparison of the metabolite absorbance spectrum with that of the 10014 confirmed the metabolite's identity.

S. lividans pCAO200 = assay: Sulfonylurea metabolism by washed cell suspension (Examples 6-9); format: in vitro ADME, Streptomyces lividans; settings: substrate 10010
[2] = test system: S. lividans pCAO200SU1-FeS-B#9; assay: as above; format: in vitro ADME, Streptomyces lividans; settings: substrate 10010
Protocol: (§1) Herbicides and their metabolites are measured by HPLC as described by Romesser et al., BBRC 140: 650-659 (1986), herein incorporated by reference, except that 0.1% H3 PO4 is used in both solvents. Chromatographic identity and quantitation of the herbicides and their resulting metabolites is determined by comparing them chromatographically with authentic standard compounds. Identity of the resulting metabolites is also confirmed by UV spectroscopy.
A 100 ml culture of S. griseolus ATCC 11796 in sporulation broth and a 50 ml culture of S. lividans transformed with pCAO400 in YEME broth were prepared and incubated for 24 hours as described. At that time, the S. griseolus culture was split into two 50 ml aliquots into two separate flasks and 25 ml of fresh sporulation broth was added to each and 9 mg of […] was added to one of these cultures to induce cytochrome P450SU1 expression. Fresh YEME broth (25 ml) was added to the S. lividans culture. After an additional 6 hours growth at 30° C., the cells in each culture were harvested as described above, washed twice with MOPS (50 mM, pH 7.2) and recentrifuged. The cell pellets were resuspended in four cell volumes of MOPS (50 mM, pH 7.2) containing 0.2% glucose and about 100 μg/ml of 10004. These cell suspensions were incubated at 30° C. with shaking and aliqouts were taken at 2 and 5.5 hours. The supernatant of each aliquot was analyzed by HPLC and the concentrations of the sulfonylurea compound 10004 and its metabolite 10005 were determined.
S. lividans transformed respectively with pCAO200SU1-FeS-B#9, pCAO200SU#112and pCAO200 were cultured for 36 hours in 400 ml of YEME broth at 30° C. S. griseolus ATCC 11796 was similarly cultured in 400 ml of sporulation broth. Six hours before harvesting the cells, 150 ml of fresh YEME broth was added to the S. lividans cells, and the S. griseolus cells were split into two 200 ml cultures with 100 ml of fresh sporulation broth added to each. 10001 (36 mg) was added to one of the two S. griseolus cultures to induce cytochrome P450SU1. […]

[3] = test system: S. lividans pCAO200SU1#12; assay: as above; format: in vitro ADME, Streptomyces lividans; settings: substrate 10010
Protocol: as §1, with “spectroscopy. […]” for “spectroscopy.”
S. lividans transformed respectively with pCAO200SU1-FeS-B#9, pCAO200SU#112and pCAO200 were cultured for 36 hours in 400 ml of YEME broth at 30° C. S. griseolus ATCC 11796 was similarly cultured in 400 ml of sporulation broth. Six hours before harvesting the cells, 150 ml of fresh YEME broth was added to the S. lividans cells, and the S. griseolus cells were split into two 200 ml cultures with 100 ml of fresh sporulation broth added to each. 10001 (36 mg) was added to one of the two S. griseolus cultures to induce cytochrome P450SU1. The cells were prepared as described above in Example 5 and the concentrations of the sulfonylurea compound 10006 and its metabolites 10007, 10008 or 10009 were determined.

COc1cc(OC)nc(NC(=O)NS(=O)(=O)c2cccc3c2S(=O)(=O)NC3)n1 [compound 10014, 2,3-dihydro-N-[(4,6-dimethoxypyrimidin-yl)aminocarbonyl]-1,2-benzisothiazol-7-sulfonamide-1,1-dioxide]
10014 levels ([1]; AGS112 (control, no P450SU1), 0 hour post-uptake): 0 μg/leaf
10014 levels ([1]; AGS112 (control, no P450SU1), 5 hour post-uptake): 0 μg/leaf
10014 levels ([1]; Cab-SU131.5 (chloroplast directed), 0 hour post-uptake): 1.3 μg/leaf
10014 levels ([1]; Cab-SU131.5 (chloroplast directed), 5 hour post-uptake): 2.9 μg/leaf
10014 levels ([1]; SSU-SU111.5 (chloroplast directed), 0 hour post-uptake): 2.1 μg/leaf
10014 levels ([1]; SSU-SU111.5 (chloroplast directed), 5 hour post-uptake): 1.8 μg/leaf
10014 levels ([1]; SSU-SU121.3 (chloroplast directed), 0 hour post-uptake): 1.2 μg/leaf
10014 levels ([1]; SSU-SU121.3 (chloroplast directed), 5 hour post-uptake): 1.7 μg/leaf
10014 levels ([1]; SU18.15 (cytoplasm directed), 0 hour post-uptake): 0 μg/leaf
10014 levels ([1]; SU18.15 (cytoplasm directed), 5 hour post-uptake): 0 μg/leaf
10014 levels ([1]; SU18.8 (cytoplasm directed), 0 hour post-uptake): 0 μg/leaf
10014 levels ([1]; SU18.8 (cytoplasm directed), 5 hour post-uptake): 0 μg/leaf
10014 levels ([1]; W38, 20 ppm 10015 uptake 2 h, 0 hour post-uptake): 0 μg/leaf
10014 levels ([1]; W38, 20 ppm 10015 uptake 2 h, 5 hour post-uptake): 0 μg/leaf

COC(=O)c1ccccc1S(=O)(=O)NC(=O)Nc1nc(C)cc(C(=O)O)n1 [compound 10012, N-[(4-carboxy-6-methylpyrimidin-2yl)aminocarbonyl]-2-methoxycarbonylbenzenesulfonamide]
concentration in supernatant (S. lividans pCAO200; 2 h): 0 µM
concentration in supernatant (S. lividans pCAO200; 4 h): 0 µM
concentration in supernatant (S. lividans pCAO200; 6 h): 0 µM
concentration in supernatant ([2]; 2 h): 2 µM
concentration in supernatant ([2]; 4 h): 12 µM
concentration in supernatant ([2]; 6 h): 20 µM
concentration in supernatant ([3]; 2 h): 0 µM
concentration in supernatant ([3]; 4 h): 0 µM
concentration in supernatant ([3]; 6 h): 0 µM
